Reference: patent US10500179B2, “Glycine for use in tolerance induction in allergic patients” (N. V. Nutricia, priority 2015, dated 2019)

Assays:
[1] = tested on: Female C3H/HeOuJ mice sensitized against bovine whey protein; details: oral gavage 50 or 100 mg/mouse 24 and 4 hours before sensitization
[2] = tested on: human peripheral blood mononuclear cells (PBMCs); experiment: LPS induced TNF-α synthesis by human PBMCs (ELISA); type: cell-based; details: FIG. 3
Excerpt: The next experiment done by the inventor relates to the question whether amino acids are able to enhance immune effects of free glycine. To investigate this, human peripheral blood mononuclear cells (PBMCs) were stimulated with lipopolysaccharide (LPS) in the presence of free glycine in combination with different levels of free glutamine In short: Human PBMCs were obtained from buffy coats supplied by the blood bank and prepared by Ficoll gradient centrifugation according to standard methods. The recovered PBMCs were washed with PBS and cultured in RPMI-1640 containing, penicillin, streptomycin and 5% Fetal call serum (FCS), 1.5E5 cells/well (96-wells culture plate). The cells were stimulated with LPS (E. coli, 055:B5, 10 ng/ml) for 20 hr after 1 hr pre-incubation with different levels of glycine in combination with different levels of glutamine. The tested levels of glycine and glutamine were also tested separately. TNF-α levels were detected in the supernatant of the cells using an ELISA kit.

RBL-2H3 cells = details: glycine concentration series from 500 μg/ml, 20 hours incubation, concentration dependent
Experimental: RBL-2H3 cells were sensitized by 100 ng/ml mouse IgE α-dinitrophenyl in culture medium (DMEM with 10% FBS and 1% penicillin/[…]) and plate out 100 μl/well in a 96-well flat bottom plate. After 18 hrs of culturing at 37° C. with 5% CO2, the cells were washed 4 times with 200 μl Tyrode's buffer (130 mM NaCl, […], 1.4 mM CaCl2, 1 mM MgCl2, 5.6 mM glucose, 10 mM HEPES, and 0.1% bovine serum albumin in distilled water, pH 7.4). 25 μl glycine in a concentration series starting form 500 μg/ml and diluted 1:1 in Tyrode's buffer (component), 25 μl Tyrode's buffer (controls) or 25 μl quercetin 100 μM (positive control) were added to the cells. 25 μl of DNP-BSA (100 ng/ml) and 50 μl Tyrode's buffer were added to each component well. After 20 hours incubation at 37° C. with 5% CO2 90 μl of the cells supernatant was collected and stored at −80° C. for cytokine analysis by multiplex bead immunoassay.

NCC(=O)O [Glycine, glycine]
allergic skin response (ear swelling) after intradermal whey injection ([1]; effect concentration dependent, FIG. 2A): inhibits the allergy development
mMCP1 release (by intestinal mast cells) after an oral allergen challenge ([1]; serum one hour after 50 mg whey oral challenge, FIG. 2B): inhibits allergy development
production of whey-specific IgE ([1]; serum, ELISA, FIG. 2C): inhibits
LPS induced TNF-α synthesis by PBMCs ([2]; LPS 10 ng/ml for 20 hr after 1 hr pre-incubation): inhibited
crosslinking induced TNFα production (RBL-2H3 cells; FIG. 1A): inhibits
crosslinking induced IL-4 production (RBL-2H3 cells; FIG. 1B): inhibits
crosslinking induced IL-13 production (RBL-2H3 cells; FIG. 1C): inhibits

NC(=O)CC[C@H](N)C(=O)O [glutamine]
effect of glutamine on glycine inhibition of LPS induced TNF-α synthesis ([2]; glutamine combined with glycine at specific ratios, LPS 10 ng/ml 20 hr): enhanced this effect synergistically
